Data from patent US20250282827A1, “LIPIDATED POLYMYXIN ANALOGUES” (priority 2021, published 2025).
In brackets after ≈: the same amount, converted by molar mass. Positions of bridges follow the written chain, without caps; N, C: chain ends. Non-standard residues stand in square brackets, D forms with d. Residues, ends and D or L forms follow the SMILES beside them. *: point of attachment. Ethyl(2-OBz) = O=C(OCC*)c1ccccc1; Dab = NCC[C@H](N)C(=O)O; X3 = CCCC(C)C(=O)OCC*

What was measured:
[1] = system: E. coli ATCC 25922; format: cell-based, Escherichia coli; details: median of triplicate
Excerpt: (§1) All 81 compounds prepared in Examples 2 and 3 underwent screening against a panel of Gram-negative bacterium to assess their ability to inhibit bacterial growth. […] The median value is presented.

[2] = system: A. baumannii ATCC 19606; format: cell-based, Acinetobacter baumannii; details: median of triplicate
Excerpt: as §1

[3] = system: P. aeruginosa ATCC 27853; format: cell-based, Pseudomonas aeruginosa; details: median of triplicate
Excerpt: as §1

[4] = system: K. pneumoniae ATCC 33495; format: cell-based, Klebsiella pneumoniae; details: median of triplicate
Excerpt: as §1

[5] = system: K. pneumoniae ATCC 700603; format: cell-based, Klebsiella pneumoniae; details: median of triplicate
Excerpt: as §1

[6] = system: K. pneumoniae ATCC MS6671; format: cell-based, Klebsiella pneumoniae; details: median of triplicate
Excerpt: as §1

[7] = system: E. coli ATCC MS8345; format: cell-based, Escherichia coli; details: colistin-resistant strain; median of triplicate
Excerpt: as §1
Expansion of the polymyxin macrocycle by substituting […]) offered little advantage in antimicrobial activity but was generally well tolerated although for A. baumanni and P. aeruginosa this was detrimental.

[8] = system: kidney organoids derived from human induced pluripotent stem cells; assay: Nephrotoxicity on kidney organoids, renal tubule deterioration by bright field imaging; format: cell-based; details: scored after 48 h; further: key: 1 = unaffected; 2 = mild deterioration; 3 = severe deterioration; 4 = complete deterioration
Description: Selected polymyxin analogues were evaluated for cytotoxicity in physiologically relevant human kidney tissue, using kidney organoids derived from human induced pluripotent stem cells (Soo et al. 2018). Monolipidated analogues 29, 31, 33, containing a propyl, decyl or phenyl lipid, dilapidated compounds, 35, 38, 39, containing a propyl, tert-butyl or phenyl, lipid, respectively and the N-capped, di-lipidated (phenyl) 49 were selected.
The control compound polymyxin B and the seven ClipPA analogues were tested by adding a range of concentrations (based on Gallado-Godoy et al. 2016) to the organoids at day 12 of the protocol, shown previously to correspond to optimal maturity of the organoid tissues.
Toxicity was scored after 48 h for signs of renal tubule deterioration visible by bright field imaging (not shown).

[9] = system: Vero cell line; assay: Cellular toxicity against Vero cell line; format: cell-based; details: Vero cell line; for IC50 Vero: ± standard error
Description: (§2) FIG. 6 is a graph showing cell survival as a function of the indicated compound concentration. Data are representative of triplicate experiments.
(§3) To evaluate if the ClipPA modifications introduced any new toxicity, inhibitory concentrations against Vero and HaCaT cell lines were determined. […] The standard error for each measurement is shown.

[10] = system: HaCaT cell line; assay: Cellular toxicity against HaCaT cell line; format: cell-based; details: HaCaT cell line; for IC50 HaCaT: ± standard error
Description: as §2, §3

Compound	MIC E. coli ATCC 25922 [1]	MIC A. baumannii ATCC 19606 [2]	MIC P. aeruginosa ATCC 27853 [3]	MIC K. pneumoniae ATCC 33495 [4]	MIC K. pneumoniae ATCC 700603 [5]	MIC K. pneumoniae ATCC MS6671 [6]	MIC E. coli ATCC MS8345 [7]	Score (nephrotoxicity on kidney organoids) ([8]; 100 μM)	Score (nephrotoxicity on kidney organoids) ([8]; 300 μM)	Score (nephrotoxicity on kidney organoids) ([8]; 1 mM)	fold more toxic compared to compound 29 [9]	IC50 Vero [9]	fold more toxic compared to compound 29 [10]	IC50 HaCaT [10]
C[C@@H](O)[C@@H]1NC(=O)[C@H](CCN)NC(=O)[C@H](CCN)NC(=O)[C@H](CSCCOC(=O)c2ccccc2)NC(=O)[C@@H](Cc2ccccc2)NC(=O)[C@H](CCN)NC(=O)[C@@H](NC(=O)[C@H](CCN)NC(=O)[C@@H](NC(=O)[C@H](CCN)NC(=O)[C@@H](N)CSCCOC(=O)c2ccccc2)[C@@H](C)O)CCNC1=O [Compound 39] (H-C(Ethyl(2-OBz))[Dab]T[Dab][Dab][Dab][dF]C(Ethyl(2-OBz))[Dab][Dab]T; lactam 5-C)	0.5 µg/mL (≈ 0.344 µM)	2 µg/mL (≈ 1.38 µM)	2 µg/mL (≈ 1.38 µM)	0.5 µg/mL (≈ 0.344 µM)	0.5 µg/mL (≈ 0.344 µM)	>32 µg/mL	4 µg/mL (≈ 2.75 µM)	1	3	4	~5 fold	521.0 ± 17.05 µg/mL (≈ 359 µM)	~5 fold	657.7 ± 87.51 µg/mL (≈ 453 µM)
CCCC(C)C(=O)OCCSC[C@@H](N)C(=O)N[C@H](C(=O)N[C@@H](CCN)C(=O)N[C@H]1CCNC(=O)[C@H]([C@@H](C)O)NC(=O)[C@H](CCN)NC(=O)[C@H](CCN)NC(=O)[C@H](CC(C)C)NC(=O)[C@@H](Cc2ccccc2)NC(=O)[C@H](CCN)NC1=O)[C@@H](C)O (some centres unmarked) [Compound 94] (H-[dC](X3)T[Dab][Dab][Dab][dF]L[Dab][Dab]T; lactam 4-C)	1 µg/mL (≈ 0.827 µM)	4 µg/mL (≈ 3.31 µM)	2 µg/mL (≈ 1.65 µM)	1 µg/mL (≈ 0.827 µM)	2 µg/mL (≈ 1.65 µM)	>32 µg/mL	16 µg/mL (≈ 13.2 µM)	1	2	3				
Colistin [reference compound]												949.7 ± 75.35 µg/mL		2578 ± 11.41 µg/mL
